The subject of series [1] is stem cells. Conditions: cultured in the absence of FGF2; cited from earlier work.
In series [2] the test system is hiPS cell line SBI #SC101A-1. As to the kind of experiment: hPSC culture, microscopic analysis of morphological growth pattern and proliferation. Format: cell-based, human. Conditions: defined, feeder-free culture on vitronectin; Example 1 medium containing only the named factor(s); no FGF-2. Here is the method: The culture vessel was coated with 0.5 μg/cm^2 of recombinant human vitronectin as ECM. For this, 100 μl of a diluted vitronectin solution per cm^2 of culture vessel surface is applied to the culture vessel with. The coated culture vessel is left for 2 hours at room temperature. The vitronectin solution was aspirated just before seeding the cells.
The cell line used in this experiment is the human foreskin fibroblast derived hiPS cell line SBI #SC101A-1 (obtainable from System Biosciences (SBI), Palo Alto, under the defined reference number).
The stem cell culture medium was prepared as described in Example 1. For cryopreserved cells, a ROCK-Inhibitor (10 μM Y-27632 or 2 μM Thiazovivin) is added to the stem cell culture medium. Alternatively, for existing proliferating cultures a clump passage was performed as described in Example 3 below.
The hPSCs were seeded in a 1:2 to 1:3 ratio (relative to the volume of the tissue culture vessel) into the ECM coated tissue culture vessel using an appropriate amount of culture medium. For example, 2-3 ml per well are used for 6-well plates and 15-25 ml for T-75 flasks.
After plating, the subcultured hPSCs were allowed to attach overnight (12-24 hours).
A medium change was performed: the stem cell culture medium including non-attached cells was aspirated, washed once with Dulbecco's PBS, w/o Ca^2+/Mg^2+ and the cells were provided with fresh culture medium (w/o ROCK-Inhibitors).
A media change was performed every 1-3 days.
The stem cell culture medium was aspirated and the hPSCs were washed twice with Dulbecco's PBS, w/o Ca^2+/Mg^2+. Next, 200-300 μl/cm^2 of dissociation buffer was added and the solution was incubated for 6-10 minutes in the incubator at 37° C. and 5% CO2. The dissociation buffer was carefully aspirated and 1-5 ml of fresh culture medium was added. The colonies were flushed away from the surface using a serological pipet. In order to maintain cell clumps of sufficient size flushing of more than 4-5 times was avoided. Then, cell clumps were dispensed into new ECM-coated culture vessels with fresh stem cell culture medium and the culture was continued according to the cell attachment step (step 2.3) of Example 2.
Induced pluripotent stem cells were cultured in the presence of the stem cell culture medium according to Example 1 without trimipramine in order to reproduce published observations that activin a on its own cannot fully support undifferentiated maintenance of most hPSC lines (Vallier et al., 2005; Xiao et al., 2006). Initiation of the hPSC culture was performed according to Example 2, followed by subculturing the cells according to Example 3.
It was also aimed to reproduce the published partial self-renewal support capabilities of trimipramine in human pluripotent stem cells (Kumagai et al., 2013). […]

The conditions of series [3]: cited from earlier work; for biological half-life: under cell culture conditions.

For orientation: half-life means the time needed for the level to fall by half in the phase considered.

For `CCN(CC)CCCC(C)Nc1c2ccc(Cl)cc2nc2ccc(OC)cc12` (centres unmarked) [mepacrine], the “expression of pluripotency markers SSEA-3, SSEA-4 TRA-1-60, TRA-1-81 and OCT4” value (shortened to “expression”) in series [1] is “induce the expression of known pluripotency markers”.

In the case of `CCN(CC)C(C)CN1c2ccccc2Sc2ccccc21` (centres unmarked) [profenamine], the “expression” value in series [1] is recorded as “induce the expression of known pluripotency markers”. In the case of `CC(CN1c2ccccc2Sc2ccccc21)N(C)C` (centres unmarked) [promethazine], in series [1], the “expression” value is given as “induce the expression of known pluripotency markers”.

For the molecule `CC(CN(C)C)CN1c2ccccc2CCc2ccccc21` (centres unmarked) [trimipramine], in series [2], the “cell proliferation / expansion of hPSC” value is “not sufficient to effectively expand the human pluripotent stem cells” and the “maintenance of undifferentiated state (morphological phenotype)” value was “able to maintain the prototypical pluripotent morphological phenotype”. Further, in series [3], the half-life is 23 h. The “expression” value in series [1] is on record as “induce the expression of known pluripotency markers”. On to “FGF-2: growth factor (FGFR ligand) traditionally used in hPSC media”, for which the biological half-life in series [3] is reported as 5-7 hours. As to “TGF-β1: growth factor (ALK5 ligand) traditionally used in hPSC media”, the biological half-life in series [3] is reported as 50 minutes.

B1: activin a: homodimer of the inhibin beta A subunit (UniProtKB P08476), member of the TGF-β superfamily (protein, UniProt P08476 311-426, looked up)
Inhibin beta A chain: GLECDGKVNICCKKQFFVSFKDIGWNDWIIAPSGYHANYCEGECPSHIAGTSGSSLSFHSTVINHYRMRGHSPFANLKSCCVPTKLRPMSMLYYDDGQNIIKKDIQNMIVEECGCS
modifications: Inhibin beta A chain
notes: homodimer of the inhibin beta A subunit (UniProtKB P08476), member of the TGF-β superfamily
With B1, in series [2], the “cell proliferation / expansion of hPSC” value was “significant cell proliferation” and the “maintenance of undifferentiated state (morphological phenotype)” value is reported as “not able to robustly support the maintenance of the tested hPSC line in an undifferentiated state”.
